We go through 30 compounds from patent publication US8501936B2 (priority 2009, dated 2013).

Broadly, the IC50 is the concentration that gives 50% inhibition.

One assay has as its target human FAK (Homo sapiens (Human), UniProt Q05397). Conditions: read-out: FAK IC50.
A further assay addresses human JAK2 (Homo sapiens (Human), UniProt O60674). The following applies: read-out: JAK2 IC50.

Sequence of human FAK (Q05397 whole entry): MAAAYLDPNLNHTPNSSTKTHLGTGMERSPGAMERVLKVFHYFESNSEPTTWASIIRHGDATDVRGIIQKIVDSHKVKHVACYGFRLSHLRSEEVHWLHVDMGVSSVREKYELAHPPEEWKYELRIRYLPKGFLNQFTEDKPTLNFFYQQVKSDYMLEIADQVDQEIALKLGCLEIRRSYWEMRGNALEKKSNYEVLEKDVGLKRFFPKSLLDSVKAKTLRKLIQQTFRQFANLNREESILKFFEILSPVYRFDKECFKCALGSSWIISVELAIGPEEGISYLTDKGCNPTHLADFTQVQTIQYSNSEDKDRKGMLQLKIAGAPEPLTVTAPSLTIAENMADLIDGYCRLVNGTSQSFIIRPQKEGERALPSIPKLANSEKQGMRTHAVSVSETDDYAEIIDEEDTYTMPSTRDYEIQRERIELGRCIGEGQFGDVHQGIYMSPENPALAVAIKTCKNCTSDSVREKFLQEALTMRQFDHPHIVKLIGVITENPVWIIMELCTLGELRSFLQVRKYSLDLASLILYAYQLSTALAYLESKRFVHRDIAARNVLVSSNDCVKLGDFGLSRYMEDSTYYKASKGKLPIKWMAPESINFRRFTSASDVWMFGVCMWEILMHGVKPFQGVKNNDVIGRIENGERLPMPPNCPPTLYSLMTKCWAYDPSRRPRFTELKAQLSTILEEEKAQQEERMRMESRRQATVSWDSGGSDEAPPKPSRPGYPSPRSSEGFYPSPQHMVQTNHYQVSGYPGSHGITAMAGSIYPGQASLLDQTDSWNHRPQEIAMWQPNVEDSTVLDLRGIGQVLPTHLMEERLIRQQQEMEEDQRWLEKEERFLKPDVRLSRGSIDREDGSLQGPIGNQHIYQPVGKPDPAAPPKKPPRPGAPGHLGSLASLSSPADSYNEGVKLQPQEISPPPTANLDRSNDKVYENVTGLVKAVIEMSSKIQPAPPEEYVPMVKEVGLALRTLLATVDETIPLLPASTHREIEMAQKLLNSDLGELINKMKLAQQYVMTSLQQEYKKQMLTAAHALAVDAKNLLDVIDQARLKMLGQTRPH
Sequence of human JAK2 (O60674 815-1132): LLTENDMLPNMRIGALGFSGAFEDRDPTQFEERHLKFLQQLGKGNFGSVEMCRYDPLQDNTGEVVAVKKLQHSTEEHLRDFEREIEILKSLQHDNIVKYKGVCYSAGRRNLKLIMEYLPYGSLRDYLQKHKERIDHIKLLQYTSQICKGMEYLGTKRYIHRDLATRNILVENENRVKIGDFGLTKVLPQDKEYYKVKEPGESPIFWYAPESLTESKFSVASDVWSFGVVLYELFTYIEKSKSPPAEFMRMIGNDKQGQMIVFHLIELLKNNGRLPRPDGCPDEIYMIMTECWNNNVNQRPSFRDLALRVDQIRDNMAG

In the case of `CCn1cc(Nc2nc3c(Oc4ccc(S(C)(=O)=O)cc4)cccn3n2)cn1` [Example 211, (1-Ethyl-1H-pyrazol-4-yl)-[8-(4-methanesulfonyl-phenoxy)-[1,2,4]triazolo[1,5-a]pyridin-2-yl]-amine], the values for the IC50 at human FAK and at human JAK2 were 10000 nM and 1160 nM, respectively.

As for `CC(C)(C)OC(=O)N1CCC(n2cc(Nc3nc4c(-c5ccc(S(C)(=O)=O)cc5)cccn4n3)cn2)CC1` [Example 212, 4-{4-[8-(4-Methanesulfonyl-phenyl)-[1,2,4]triazolo[1,5-a]pyridin-2-ylamino]-pyrazol-1-yl}-piperidin-1-carboxylic acid tert-butyl ester], the concentration for half-maximal inhibition (IC50) at human FAK was 3000 nM; at human JAK2, 0.5 nM.

Regarding `CS(=O)(=O)c1ccc(-c2cccn3nc(Nc4cnn(C5CCNCC5)c4)nc23)cc1` [Example 213, [8-(4-Methanesulfonyl-phenyl)-[1,2,4]triazolo[1,5-a]pyridin-2-yl]-(1-piperidin-4-yl-1H-pyrazol-4-yl)-amine], the half-inhibitory concentration (IC50) at human FAK was found to be 3000 nM; on human JAK2, 0.71 nM.

Take `FC(F)(F)c1ccc(-c2cccn3nc(Nc4cnn(CCN5CCCC5)c4)nc23)cc1` [Example 216, [1-(2-Pyrrolidin-1-yl-ethyl)-1H-pyrazol-4-yl]-[8-(4-trifluoromethyl-phenyl)-[1,2,4]triazolo[1,5-a]pyridin-2-yl]-amine]: the values for the IC50 at human FAK and on human JAK2 were 10000 nM and 9.1 nM, respectively.

As to `CS(=O)(=O)c1ccc(Oc2cccn3nc(Nc4cnn(CCN5CCCC5)c4)nc23)cc1` [Example 217, [8-(4-Methanesulfonyl-phenoxy)-[1,2,4]triazolo[1,5-a]pyridin-2-yl]-(1-(2-pyrrolidin-1-yl-ethyl)-1H-pyrazol-4-yl]-amine], the 50% inhibitory concentration (IC50) on human FAK is 1220 nM; at human JAK2 it was 3000 nM.

`CS(=O)(=O)c1ccc(-c2cccn3nc(Nc4cnn(CCN5CCCC5)c4)nc23)cc1` [Example 219, [8-(4-Methanesulfonyl-phenyl)-[1,2,4]triazolo[1,5-a]pyridin-2-yl]-(1-(2-pyrrolidin-1-yl-ethyl)-1H-pyrazol-4-yl]-amine]: the values for the half-inhibitory concentration (IC50) on human FAK and on human JAK2 were 10000 nM and 13.9 nM, respectively.

On to `COCc1ccccc1-c1cccc2nc(Nc3ccc4c(c3)CCN(C(=O)OC(C)(C)C)CC4)nn12` [Example 226, 7-[5-(2-Methoxymethyl-phenyl)-[1,2,4]triazolo[1,5-a]pyridin-2-ylamino]-1,2,4,5-tetrahydro-benzo[d]azepine-3-carboxylic acid tert-butyl ester], for which the IC50 on human FAK turned out to be 10000 nM; at human JAK2, 650 nM.

On to `COCc1ccccc1-c1cccc2nc(Nc3ccc4c(c3)CCN(CC(=O)N(C)C)CC4)nn12` [Example 229, 2-{7-[5-(2-Methoxymethyl-phenyl)-[1,2,4]triazolo[1,5-a]pyridin-2-ylamino]-1,2,4,5-tetrahydro-benzo[d]azepin-3-yl}-N,N-dimethyl-acetamide], for which the figures for the 50% inhibitory concentration (IC50) on human FAK and at human JAK2 were 3000 nM and 47.4 nM, respectively.

Take `COCc1ccccc1-c1cccc2nc(Nc3ccc4c(c3)CCN(CCS(C)(=O)=O)CC4)nn12` [Example 230, [3-(2-Methanesulfonyl-ethyl)-2,3,4,5-tetrahydro-1H-benzo[d]azepin-7-yl]-[5-(2-methoxymethyl-phenyl)-[1,2,4]triazolo[1,5-a]pyridin-2-yl]-amine]: the IC50 at human FAK worked out at 2000 nM; at human JAK2, 27.6 nM.

`COc1ccc(C(F)(F)F)cc1-c1cccc2nc(Nc3ccc4c(c3)CCNCC4)nn12` [Example 234, [5-(2-Methoxy-5-trifluoromethyl-phenyl)-[1,2,4]triazolo[1,5-a]pyridine-2-yl]-(2,3,4,5-tetrahydro-1H-benzo[d]azepin-7-yl)-amine]: the 50% inhibitory concentration (IC50) on human FAK is 547 nM; at human JAK2, 23.4 nM.

For `COc1ccc(C(F)(F)F)cc1-c1cccc2nc(Nc3ccc4c(c3)CCN(CCSC)CC4)nn12` [Example 235, [5-(2-Methoxy-5-trifluoromethyl-phenyl)-[1,2,4]triazolo[1,5-a]pyridin-2-yl]-(3-(2-methylsulfanyl-ethyl)-2,3,4,5-tetrahydro-1H-3-benzazepin-7-yl]-amine], the IC50 was found to be 135 nM at human FAK and 26.7 nM at human JAK2.

With `COc1ccc(C(F)(F)F)cc1-c1cccc2nc(Nc3ccc4c(c3)CCN(CC(=O)N(C)C)CC4)nn12` [Example 237], the IC50 at human FAK was 714 nM; at human JAK2, 53.9 nM.

As to `CCOc1ccccc1-c1cccn2nc(Nc3ccc4c(c3)CCN(CCS(C)(=O)=O)CC4)nc12` [Example 245], the 50% inhibitory concentration (IC50) at human FAK stood at 10000 nM; at human JAK2, 70 nM.

For `CCOc1ccccc1-c1cccn2nc(Nc3ccc4c(c3)CCN(CC(=O)N(C)C)CC4)nc12` [Example 246], the IC50 on human FAK is 10000 nM; on human JAK2, 212 nM.

For `CS(=O)(=O)CCN1CCc2ccc(Nc3nc4c(-c5cccc6c5OC(F)(F)O6)cccn4n3)cc2CC1` [Example 247, [8-(2,2-difluoro-1,3-benzodioxol-4-yl)-[1,2,4]triazolo[1,5-a]pyridin-2-yl]-[3-(2-methanesulfonyl-ethyl)-2,3,4,5-tetrahydro-1H-3-benzazepin-7-yl)amine], the IC50 is 2000 nM on human FAK and 24.8 nM at human JAK2.

For `CN(C)C(=O)CN1CCc2ccc(Nc3nc4c(-c5cccc6c5OC(F)(F)O6)cccn4n3)cc2CC1` [Example 248, 2-(7-[8-(2,2-difluoro-1,3-benzodioxol-4-yl)-[1,2,4]triazolo[1,5-a]pyridin-2-yl-amino]-1,2,4,5-tetrahydro-3-benzazepin-3-yl)-N—N-dimethyl-acetamide], the half-maximal inhibitory concentration (IC50) at human FAK worked out at 1700 nM; on human JAK2, 30.4 nM.

Take `COc1ccc(C(F)(F)F)cc1-c1cccn2nc(Nc3ccc(N4CCN(C)CC4)cc3)nc12` [Example 254, [8-(2-Methoxy-5-trifluoromethyl-phenyl)-[1,2,4]triazolo[1,5-a]pyridin-2-yl]-[4-(4-methyl-piperazine-1-yl)-phenyl]-amine]: the IC50 at human FAK was 1080 nM; on human JAK2 it was 31.3 nM.

As to `COc1ccc(C(F)(F)F)cc1-c1cccn2nc(Nc3cccc(N4CCN(C)CC4)c3)nc12` [Example 255, [8-(2-Methoxy-5-trifluoromethyl-phenyl)-[1,2,4]triazolo[1,5-a]pyridin-2-yl]-[3-(4-methyl-piperazine-1-yl)-phenyl]-amine], the half-inhibitory concentration (IC50) at human FAK is 1220 nM; at human JAK2 it was 158 nM.

For `COc1ccc(C(F)(F)F)cc1-c1cccn2nc(Nc3cccc(C4CCNCC4)c3)nc12` [Example 257, [8-(2-Methoxy-5-trifluoromethyl-phenyl)-[1,2,4]triazolo[1,5-a]pyridin-2-yl]-(3-piperidin-4-yl-phenyl)-amine], the half-maximal inhibitory concentration (IC50) was determined as 481 nM on human FAK and 28.9 nM on human JAK2.

Turning to `COc1ccc(C(F)(F)F)cc1-c1cccn2nc(Nc3ccc(OCCN4CCOCC4)cc3)nc12` [Example 258, [8-(2-Methoxy-5-trifluoromethyl-phenyl)-[1,2,4]triazolo[1,5-a]pyridin-2-yl]-[4-(2-morpholin-4-yl-ethoxy)-phenyl]-amine], the half-maximal inhibitory concentration (IC50) on human FAK came out at 6500 nM; on human JAK2, 84.5 nM.

Regarding `COc1ccc(C(F)(F)F)cc1-c1cccn2nc(Nc3ccc(OCCN4CCCC4)cc3)nc12` [Example 259, [8-(2-Methoxy-5-trifluoromethyl-phenyl)-[1,2,4]triazolo[1,5-a]pyridin-2-yl]-[4-(2-pyrrolidin-1-yl-ethoxy)-phenyl]-amine], the half-maximal inhibitory concentration (IC50) on human FAK turned out to be 3390 nM; on human JAK2 it was 73.7 nM.

With `CN1CCN(c2cccc(Nc3nc4c(OCc5cccc(Cl)c5)cccn4n3)c2)CC1` [Example 261, [8-(3-Chloro-benzyloxy)-[1,2,4]triazolo[1,5-a]pyridin-2-yl]-[3-(4-methyl-piperazin-1-yl)-phenyl]-amine], the IC50 on human FAK was determined as 1590 nM; at human JAK2 it was 99.5 nM.

With `CN1CCN(c2ccc(Nc3nc4c(OCc5ccccc5C#N)cccn4n3)cc2)CC1` [Example 262, 2-{2-[4-(4-Methyl-piperazin-1-yl)-phenylamino]-[1,2,4]triazolo[1,5-a]pyridin-8-yloxymethyl}-benzonitrile], the IC50 was 2560 nM on human FAK and 15.1 nM on human JAK2.

With `CC(=O)Nc1cccc(Nc2nc3c(-c4ccc(S(C)(=O)=O)cc4)cccn3n2)c1` [Example 267, N-{3-[8-(4-Methanesulfonyl-phenyl)-[1,2,4]triazolo[1,5-a]pyridin-2-ylamino]-phenyl}-acetamide], the concentration for half-maximal inhibition (IC50) was 10000 nM on human FAK and 3.43 nM at human JAK2.

In the case of `CS(=O)(=O)CCN1CCc2ccc(Nc3nc4c(-c5cc(C(F)(F)F)ccc5Cl)cccn4n3)cc2CC1` [Example 268, [8-(2-Chloro-5-trifluoromethyl-phenyl)-[1,2,4]triazolo[1,5-a]pyridin-2-yl]-[3-(2-methanesulfonyl-ethyl)-2,3,4,5-tetrahydro-1H-benzo[d]azopin-7-yl]-amine], the IC50 at human FAK was found to be 999 nM; on human JAK2, 16.8 nM.

As for `COc1ncccc1-c1cccn2nc(Nc3ccc(C4CCN(C(=O)OC(C)(C)C)CC4)cc3)nc12` [Example 271], the IC50 on human FAK was 10000 nM; on human JAK2, 675 nM.

In the case of `COc1ncccc1-c1cccn2nc(Nc3ccc(C4CCNCC4)cc3)nc12` [Example 272], the IC50 at human FAK is 10000 nM; at human JAK2 it was 377 nM.

As for `COc1ncccc1-c1cccn2nc(Nc3ccc(C4CCN(CC(=O)N(C)C)CC4)cc3)nc12` [Example 273, 2-(4-{4-[8-(2-Methoxy-pyridin-3-yl)-[1,2,4]triazolo[1,5-a]pyridine-2-ylamino]-phenyl}-piperidin-1-yl)-N,N-dimethyl-acetamide], the results for the IC50 on human FAK and at human JAK2 were 999 nM and 251 nM, respectively.

For `COc1ncccc1-c1cccn2nc(Nc3ccc4ncccc4c3)nc12` [Example 274, [8-(2-Methoxy-pyridin-3-yl)-[1,2,4]triazolo[1,5-a]pyridine-2-yl]-quinolin-6-yl-amine], the IC50 amounted to 10000 nM at human FAK and 192 nM at human JAK2.

`CN(C)C(=O)CN1CCC(c2ccc(Nc3nc4c(-c5ccc[nH]c5=O)cccn4n3)cc2)CC1` [Example 275, N,N-Dimethyl-2(4-{4-[8-(2-oxo-1,2-dihydro-pyridin-3-yl)-[1,2,4]triazolo[1,5-a]pyridine-2-ylamino]-phenyl}-piperidin-1-yl)-acetamide]: the IC50 amounted to 2000 nM at human FAK and 270 nM at human JAK2.
